The text below walks through data of ChEMBL document CHEMBL1132880, “Novel arylpiperazines as selective alpha1-adrenergic receptor antagonists” (Bioorg Med Chem Lett, 2000).

Experiment [1] has as its target T1, Alpha-1D adrenergic receptor (Homo sapiens, UniProt P25100).
T1 sequence (P25100 whole entry): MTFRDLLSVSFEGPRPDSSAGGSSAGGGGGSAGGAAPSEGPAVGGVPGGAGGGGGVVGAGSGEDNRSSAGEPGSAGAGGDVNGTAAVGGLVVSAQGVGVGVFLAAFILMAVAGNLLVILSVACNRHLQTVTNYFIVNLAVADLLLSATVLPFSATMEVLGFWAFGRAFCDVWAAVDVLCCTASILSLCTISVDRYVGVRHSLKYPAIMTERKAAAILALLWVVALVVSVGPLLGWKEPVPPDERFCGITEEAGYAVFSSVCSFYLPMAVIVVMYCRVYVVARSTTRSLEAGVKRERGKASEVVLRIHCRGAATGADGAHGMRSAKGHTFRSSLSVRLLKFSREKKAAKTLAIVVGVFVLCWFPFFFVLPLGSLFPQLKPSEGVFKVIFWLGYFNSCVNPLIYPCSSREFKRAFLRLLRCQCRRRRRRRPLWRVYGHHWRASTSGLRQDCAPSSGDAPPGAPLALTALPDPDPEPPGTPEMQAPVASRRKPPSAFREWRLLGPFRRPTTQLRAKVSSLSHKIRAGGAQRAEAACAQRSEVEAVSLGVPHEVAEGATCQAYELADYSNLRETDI
Description: Binding affinity for human Alpha-1D adrenergic receptor expressed in COS cell membranes.

Experiment [2] has as its target T2, Alpha-1B adrenergic receptor (Homo sapiens, UniProt P35368).
T2 sequence (P35368 whole entry): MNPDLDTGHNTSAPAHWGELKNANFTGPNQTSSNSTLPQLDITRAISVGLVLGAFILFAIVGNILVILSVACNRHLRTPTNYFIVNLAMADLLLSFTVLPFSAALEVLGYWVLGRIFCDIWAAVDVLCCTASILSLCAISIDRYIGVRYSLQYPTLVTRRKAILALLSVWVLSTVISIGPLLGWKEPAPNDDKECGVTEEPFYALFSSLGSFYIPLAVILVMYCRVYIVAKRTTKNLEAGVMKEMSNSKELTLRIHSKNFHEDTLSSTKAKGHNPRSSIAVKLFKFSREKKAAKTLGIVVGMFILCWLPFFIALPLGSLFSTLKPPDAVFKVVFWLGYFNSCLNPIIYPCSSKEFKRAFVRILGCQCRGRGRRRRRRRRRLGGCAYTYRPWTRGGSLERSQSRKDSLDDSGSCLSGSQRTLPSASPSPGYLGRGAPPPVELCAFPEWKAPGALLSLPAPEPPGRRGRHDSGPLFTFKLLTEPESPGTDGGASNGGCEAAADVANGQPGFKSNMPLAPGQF
Kind of experiment: Binding affinity for human Alpha-1B adrenergic receptor expressed in COS cell membranes.

Experiment [3] addresses T3, Alpha-1A adrenergic receptor (Homo sapiens, UniProt P35348).
T3 sequence (P35348 whole entry): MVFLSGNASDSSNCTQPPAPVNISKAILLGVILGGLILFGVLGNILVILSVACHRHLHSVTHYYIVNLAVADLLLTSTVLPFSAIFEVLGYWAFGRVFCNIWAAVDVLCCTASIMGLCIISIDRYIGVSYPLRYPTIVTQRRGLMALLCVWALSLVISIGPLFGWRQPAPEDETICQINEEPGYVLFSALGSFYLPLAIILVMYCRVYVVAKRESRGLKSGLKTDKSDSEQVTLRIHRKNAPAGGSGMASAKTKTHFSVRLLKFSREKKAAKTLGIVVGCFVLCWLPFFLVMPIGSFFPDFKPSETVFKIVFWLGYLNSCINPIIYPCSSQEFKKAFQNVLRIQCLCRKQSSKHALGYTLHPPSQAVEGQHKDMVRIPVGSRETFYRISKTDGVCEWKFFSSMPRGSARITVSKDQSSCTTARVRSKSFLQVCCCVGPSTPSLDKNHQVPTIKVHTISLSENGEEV
Description: Binding affinity for human Alpha-1A adrenergic receptor expressed in COS cell membranes.

Experiment [4] addresses Adrenergic receptors; alpha-1 A & B (Homo sapiens) (UniProt P35348+P35368). Kind of experiment: Relative binding affinity for human adrenergic receptor alpha 1b and alpha 1a. Type of experiment: protein assay.
For experiment [5], the target named is Alpha adrenergic receptor (1a and 1d) (Homo sapiens) (UniProt P35348+P25100). Description: Relative binding affinity for human adrenergic receptor alpha 1d and 1a. Type of experiment: protein assay.
The species entered for experiment [6] is Rattus norvegicus. Kind of experiment: pA2 data of Compound was evaluated for tissue contractions in isolated rat prostatic tissue strips. The experiment is classed as functional. To be noted: read-out: pA2 (converted).

`CC(C)Oc1ccccc1N1CCN(CCOC(=O)CN2CCCCC2=O)CC1`: the Ki in experiment [1] was 108 nM; in experiment [2] it was 2240 nM; in experiment [3], 38 nM. The results for the Ratio in experiment [4] and in experiment [5] were 59 and 3, respectively.

As to `CCOC(=O)C1CCC(=O)N1CC(=O)NCCN1CCN(c2ccccc2OC(C)C)CC1` (stereo not drawn), the Ki was 260 nM in experiment [1], 26300 nM in experiment [2] and 20 nM in experiment [3]. Moreover, the Kb in experiment [6] is 16.2 nM. For the same compound, the Ratio came to 1320 in experiment [4] and 13 in experiment [5].

In the case of `CC(C)Oc1ccccc1N1CCN(CCNC(=O)CN2CCCCCC2=O)CC1` [RWJ-68157], the values for the inhibition constant Ki in experiment [1], in experiment [2] and in experiment [3] were 505 nM, 3540 nM and 18 nM, respectively. Moreover, the Kb in experiment [6] was 204 nM. Also, the Ratio came to 196 in experiment [4] and 28 in experiment [5].

Turning to `COc1ccccc1N1CCN(CCCNC(=O)CN2CCCCC2=O)CC1`, the Ki in experiment [1] was 10000 nM; in experiment [2], 10000 nM; in experiment [3], 98 nM. Further, the Ratio in experiment [4] and in experiment [5] was 102 in each case.

As for `CC(C)Oc1ccccc1N1CCN(CCCNC(=O)CN2CCCCC2=O)CC1` [RWJ-69736], the Ki in experiment [1] was 80 nM; in experiment [2], 10000 nM; in experiment [3] it was 0.66 nM. Besides, the Ratio amounted to 15200 in experiment [4] and 121 in experiment [5].

For the compound `CC(C)Oc1ccccc1N1CCN(C/C=C/C(=O)CN2CCCCC2=O)CC1`, the Ki came to 602 nM in experiment [1], 5320 nM in experiment [2] and 18 nM in experiment [3]. In addition, the Ratio in experiment [4] worked out at 295; in experiment [5] it was 33.

In the case of `CC(C)Oc1ccccc1N1CCN(CC(O)CC(=O)CN2CCCCC2=O)CC1` (stereo not drawn), the Ki came to 253 nM in experiment [1], 10000 nM in experiment [2] and 28 nM in experiment [3]. The Ratio in experiment [4] was found to be 556; in experiment [5] it was 9.

For the compound `CC(C)Oc1ccccc1N1CCN(CCN(C)C(=O)CN2CCCCC2=O)CC1`, the Ki stood at 650 nM in experiment [1], 10000 nM in experiment [2] and 53 nM in experiment [3]. Further, the Ratio in experiment [4] was found to be 187; in experiment [5], 12.

`CC(C)Oc1ccccc1N1CCN(CCNC(=O)CN2CCCCC2=O)CC1` [RWJ-38063]: the Ki came out at 372 nM in experiment [1], 46100 nM in experiment [2] and 8.7 nM in experiment [3]. In experiment [6], the Kb was 31.6 nM. Further, the figures for the Ratio in experiment [4] and in experiment [5] were 5300 and 43, respectively.

For `CC(C)Oc1ccccc1N1CCN(CC(=O)CC(=O)CN2CCCCC2=O)CC1`, the Ki in experiment [1] worked out at 6040 nM; in experiment [2], 10000 nM; in experiment [3], 417 nM. In addition, the results for the Ratio in experiment [4] and in experiment [5] were 24 and 14, respectively.

For the compound `CC(C)Oc1cc(F)ccc1N1CCN(CCNC(=O)CN2CCCCC2=O)CC1`, the results for the Ki in experiment [1], in experiment [2] and in experiment [3] were 4500 nM, 10000 nM and 83 nM, respectively. In addition, the Ratio in experiment [4] stood at 120; in experiment [5] it was 54.

Take `O=C(CN1CCCCC1=O)NCCN1CCN(c2ccc(F)cc2OCC(F)(F)F)CC1`: the values for the Ki in experiment [1], in experiment [2] and in experiment [3] were 5350 nM, 10000 nM and 129 nM, respectively. Besides, the Ratio stood at 77 in experiment [4] and 41 in experiment [5].

Usually Ki stands for a measure of affinity in units of concentration, obtained from inhibition or displacement. High values mean a looser hold on the target, low ones a stronger hold on the target.
